Experimental data as given in patent US9745304B2, “Amidoimidazopyridazines as MKNK-1 kinase inhibitors” (BAYER PHARMA AKTIENGESELLSCHAFT, priority 2013, dated 2017).

How the values were obtained:
[1] = target: human full-lengt MKNK1 (GST fusion, T344D) (Homo sapiens (Human), UniProt Q9BUB5, T344D); test: MKNK1 kinase assay (TR-FRET, 10 μM ATP); assay type: biochemical; details: 15 min preincubation
Experimental: MKNK1-inhibitory activity of compounds of the present invention was quantified employing the MKNK1 TR-FRET assay as described in the following paragraphs.
As substrate for the kinase reaction the biotinylated peptide biotin-Ahx-[…] (C-terminus in amide form) was used which can be purchased e.g. form the company Biosyntan (Berlin-Buch, Germany).
For the assay 50 nL of a 100 fold concentrated solution of the test compound in DMSO was pipetted into a black low volume 384 well microtiter plate (Greiner Bio-One, Frickenhausen, Germany), 2 μL of a solution of MKNK1 in aqueous assay buffer [50 mM HEPES pH 7.5, 5 mM magnesium chloride, 1.0 mM dithiothreitol, 0.005% (v/v) Nonidet-P40 (Sigma)] was added and the mixture was incubated for 15 min at 22° C. to allow pre-binding of the test compounds to the enzyme before the start of the kinase reaction. […] The concentration of MKNK1 was adjusted depending of the activity of the enzyme lot and was chosen appropriate to have the assay in the linear range, typical concentrations were in the range of 0.05 μg/ml. The reaction was stopped by the addition of 5 μL of a solution of TR-FRET detection reagents (5 nM streptavidine-XL665 [Cisbio Bioassays, Codolet, France] and 1 nM anti-ribosomal protein S6 (pSer236)-antibody from Invitrogen [#44921G] and 1 nM LANCE EU-W1024 labeled ProteinG [Perkin-Elmer, product no. AD0071]) in an aqueous EDTA-solution (100 mM EDTA, 0.1% (w/v) bovine serum albumin in 50 mM HEPES pH 7.5).
(§1) The resulting mixture was incubated for 1 h at 22° C. to allow the formation of complex between the phosphorylated biotinylated peptide and the detection reagents. Subsequently the amount of phosphorylated substrate was evaluated by measurement of the resonance energy transfer from the Eu-chelate to the streptavidine-XL. Therefore, the fluorescence emissions at 620 nm and 665 nm after excitation at 350 nm were measured in a TR-FRET reader, e.g. a Rubystar (BMG Labtechnologies, Offenburg, Germany) or a Viewlux (Perkin-Elmer). The ratio of the emissions at 665 nm and at 622 nm was taken as the measure for the amount of phosphorylated substrate.

[2] = target: human full-length MKNK1 (GST fusion, T344D) (Homo sapiens (Human), UniProt Q9BUB5, T344D); test: MKNK1 kinase high ATP assay (TR-FRET, 2 mM ATP); assay type: biochemical; details: 15 min preincubation
Experimental: MKNK1 Kinase High ATP Assay
MKNK1-inhibitory activity at high ATP of compounds of the present invention after their preincubation with MKNK1 was quantified employing the TR-FRET-based MKNK1 high ATP assay as described in the following paragraphs.
As substrate for the kinase reaction the biotinylated peptide biotin-Ahx-[…] (C-terminus in amide form) was used, which can be purchased e.g. from the company Biosyntan (Berlin-Buch, Germany).
For the assay 50 nL of a 100 fold concentrated solution of the test compound in DMSO was pipetted into a black low volume 384 well microtiter plate (Greiner Bio-One, Frickenhausen, Germany), 2 μL of a solution of MKNK1 in aqueous assay buffer [50 mM HEPES pH 7.5, 5 mM magnesium chloride, 1.0 mM dithiothreitol, 0.005% (v/v) Nonidet-P40 (Sigma)] was added and the mixture was incubated for 15 min at 22° C. to allow pre-binding of the test compounds to the enzyme before the start of the kinase reaction. Then the kinase reaction was started by the addition of 3 μL of a solution of adenosine-tri-phosphate (ATP, 3.3 mM=>final conc. in the 5 μL assay volume is 2 mM) and substrate (0.1 μM=>final conc. in the 5 μL assay volume is 0.06 μM) in assay buffer and the resulting mixture was incubated for a reaction time of 30 min at 22° C. The concentration of MKNK1 was adjusted depending of the activity of the enzyme lot and was chosen appropriate to have the assay in the linear range, typical concentrations were in the range of 0.003 μg/mL. The reaction was stopped by the addition of 5 μL of a solution of TR-FRET detection reagents (5 nM streptavidine-XL665 [Cisbio Bioassays, Codolet, France] and 1 nM anti-ribosomal protein S6 (pSer236)-antibody from Invitrogen [#44921G] and 1 nM LANCE EU-W1024 labeled ProteinG [Perkin-Elmer, product no. AD0071]) in an aqueous EDTA-solution (100 mM EDTA, 0.1% (w/v) bovine serum albumin in 50 mM HEPES pH 7.5).
as §1

Chain of human full-lengt MKNK1 (GST fusion, T344D) (Q9BUB5 other isoform, or with tags, fused parts or gaps T344D): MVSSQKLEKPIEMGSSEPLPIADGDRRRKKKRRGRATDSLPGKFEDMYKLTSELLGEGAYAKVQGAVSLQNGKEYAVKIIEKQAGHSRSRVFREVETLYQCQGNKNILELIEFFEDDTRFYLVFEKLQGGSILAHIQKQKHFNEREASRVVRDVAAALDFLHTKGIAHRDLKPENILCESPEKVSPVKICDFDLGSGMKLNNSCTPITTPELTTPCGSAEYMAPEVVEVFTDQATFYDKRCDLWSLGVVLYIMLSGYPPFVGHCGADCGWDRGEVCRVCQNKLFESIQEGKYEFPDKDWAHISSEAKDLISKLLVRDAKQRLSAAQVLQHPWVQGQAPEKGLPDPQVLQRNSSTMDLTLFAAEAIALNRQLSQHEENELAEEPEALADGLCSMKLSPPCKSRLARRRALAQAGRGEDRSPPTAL
Chain of human full-length MKNK1 (GST fusion, T344D) (Q9BUB5 other isoform, or with tags, fused parts or gaps T344D): as above

| IC50 [1] [nM] | IC50 [2] [nM] | Compound |
| --- | --- | --- |
| 8 | 20 | C[C@H](O)C(=O)Nc1ccc2ncc(-c3cc4ccccc4o3)n2n1 [Example 14, (2S)—N-[3-(1-Benzofuran-2-yl)imidazo[1,2-b]pyridazin-6-yl]-2-hydroxypropanamide] |
| 8 | 18 | O=C(Cc1ccccc1)Nc1ccc2ncc(-c3cc4ccccc4o3)n2n1 [Example 1, N-[3-(1-Benzofuran-2-yl)imidazo[1,2-b]pyridazin-6-yl]-2-phenylacetamide] |
| 13 | 23 | O=C(CCC1CC1)Nc1ccc2ncc(-c3cc4ccccc4o3)n2n1 [Example 22, N-[3-(1-benzofuran-2-yl)imidazo[1,2-b]pyridazin-6-yl]-3-cyclopropylpropanamide] |
| 67 | 62 | Cc1cccc(CCC(=O)Nc2ccc3ncc(-c4cc5ccccc5o4)n3n2)c1 [Example 31, N-[3-(1-benzofuran-2-yl)imidazo[1,2-b]pyridazin-6-yl]-3-(3-methylphenyl)propanamide] |
| 25 | 36 | N#CC1(C(=O)Nc2ccc3ncc(-c4cc5ccccc5o4)n3n2)CC1 [Example 24, N-[3-(1-benzofuran-2-yl)imidazo[1,2-b]pyridazin-6-yl]-1-cyanocyclopropane carboxamide] |
| 7 | 18 | O=C(Nc1ccc2ncc(-c3cc4ccccc4o3)n2n1)C(O)c1ccccc1 (stereo not drawn) [Example 2, N-[3-(1-Benzofuran-2-yl)imidazo[1,2-b]pyridazin-6-yl]-2-hydroxy-2-phenylacetamide] |
| 4 | 7 | CC(C)CC(=O)Nc1ccc2ncc(-c3cc4ccccc4o3)n2n1 [Example 17, N-[3-(1-Benzofuran-2-yl)imidazo[1,2-b]pyridazin-6-yl]-3-methylbutanamide] |
| 7 | 10 | O=C(Nc1ccc2ncc(-c3cc4ccccc4o3)n2n1)C(O)C1CCCCC1 (stereo not drawn) [Example 4, N-[3-(1-Benzofuran-2-yl)imidazo[1,2-b]pyridazin-6-yl]-2-cyclohexyl-2-hydroxyacetamide] |
| 4 | 12 | C[C@@H](O)C(=O)Nc1ccc2ncc(-c3cc4ccccc4o3)n2n1 [Example 13, (2R)—N-[3-(1-Benzofuran-2-yl)imidazo[1,2-b]pyridazin-6-yl]-2-hydroxypropanamide] |
| 9 | 13 | CCN(CC)CCC(=O)Nc1ccc2ncc(-c3cc4ccccc4o3)n2n1 [Example 23, N-[3-(1-benzofuran-2-yl)imidazo[1,2-b]pyridazin-6-yl]-N^3,N^3-diethyl-β-alaninamide] |
| 3 | 11 | O=C(Nc1ccc2ncc(-c3cc4ccccc4o3)n2n1)C(O)c1cccnc1 (stereo not drawn) [Example 3, N-[3-(1-Benzofuran-2-yl)imidazo[1,2-b]pyridazin-6-yl]-2-hydroxy-2-(pyridin-3-yl)acetamide] |
| 3 | 7 | O=C1CC[C@@H](CO)N1c1ccc2ncc(-c3cc4ccccc4o3)n2n1 [Example 11, (5S)-1-[3-(1-Benzofuran-2-yl)imidazo[1,2-b]pyridazin-6-yl]-5-(hydroxymethyl)-pyrrolidin-2-one] |
| 3 | 7 | O=C(CCc1cccnc1)Nc1ccc2ncc(-c3cc4ccccc4o3)n2n1 [Example 9, N-[3-(1-Benzofuran-2-yl)imidazo[1,2-b]pyridazin-6-yl]-3-(pyridin-3-yl)propanamide] |
| 3 | 7 | COc1nccc2oc(-c3cnc4ccc(NC(=O)[C@@H](C)O)nn34)cc12 [Example 15, (2R)-2-hydroxy-N-[3-(4-methoxyfuro[3,2-c]pyridin-2-yl)imidazo[1,2-b]-pyridazin-6-yl]propanamide] |
| 10 | 13 | COc1nccc2oc(-c3cnc4ccc(NC(=O)[C@H](C)O)nn34)cc12 [Example 16, (2S)-2-hydroxy-N-[3-(4-methoxyfuro[3,2-c]pyridin-2-yl)imidazo[1,2-b]pyridazin-6-yl]propanamide] |
| 10 | 23 | O=C(Cc1cccc(F)c1)Nc1ccc2ncc(-c3cc4ccccc4o3)n2n1 [Example 8, N-[3-(1-Benzofuran-2-yl)imidazo[1,2-b]pyridazin-6-yl]-2-(3-fluorophenyl)-acetamide] |
| 14 | 11 | N#Cc1cccc(CC(=O)Nc2ccc3ncc(-c4cc5ccccc5o4)n3n2)c1 [Example 21, N-[3-(1-benzofuran-2-yl)imidazo[1,2-b]pyridazin-6-yl]-2-(3-cyanophenyl)acetamide] |
| 17 | 18 | CC1CCN(CC(=O)Nc2ccc3ncc(-c4cc5ccccc5o4)n3n2)CC1 [Example 32, N-[3-(1-benzofuran-2-yl)imidazo[1,2-b]pyridazin-6-yl]-2-(4-methylpiperidin-1-yl)acetamide] |
| 36 | 36 | O=C(Nc1ccc2ncc(-c3cc4ccccc4o3)n2n1)c1cc(=O)[nH]c(=O)[nH]1 [Example 10, N-[3-(1-Benzofuran-2-yl)imidazo[1,2-b]pyridazin-6-yl]-2,6-dioxo-1,2,3,6-tetrahydropyrimidine-4-carboxamide] |
| 7 | 12 | O=C(Cc1ccccn1)Nc1ccc2ncc(-c3cc4ccccc4o3)n2n1 [Example 6, N-[3-(1-Benzofuran-2-yl)imidazo[1,2-b]pyridazin-6-yl]-2-(pyridin-2-yl)acetamide] |
| 8 | 6 | O=C(CCc1c[nH]cn1)Nc1ccc2ncc(-c3cc4ccccc4o3)n2n1 [Example 19, N-[3-(1-Benzofuran-2-yl)imidazo[1,2-b]pyridazin-6-yl]-3-(1H-imidazol-4-yl)-propanamide] |
